Results taken from ChEMBL document CHEMBL4765428, “Design, synthesis, and electrophysiological evaluation of NS6740 derivatives: Exploration of the structure-activity relationship for alpha7 nicotinic acetylcholine receptor silent activation” (Eur J Med Chem, 2020).
Activity calls are given as the source filed them. The calls are words filed in the database; no cut-off is given here.

Tests used:
[1] = molecular target: T1, Neuronal acetylcholine receptor subunit alpha-7 (Homo sapiens, UniProt P36544); experiment: (§1) Partial agonist activity at human alpha7 nAChR expressed in Xenopus laevis oocytes assessed as direct potentiation of Ach response at 10 uM at -60 mV holding potential by measuring net charge co-application of compound and PNU-120596 by two electrode voltage-clamp assay; type: cell-based; conditions: Oocyte
T1 sequence (P36544 whole entry): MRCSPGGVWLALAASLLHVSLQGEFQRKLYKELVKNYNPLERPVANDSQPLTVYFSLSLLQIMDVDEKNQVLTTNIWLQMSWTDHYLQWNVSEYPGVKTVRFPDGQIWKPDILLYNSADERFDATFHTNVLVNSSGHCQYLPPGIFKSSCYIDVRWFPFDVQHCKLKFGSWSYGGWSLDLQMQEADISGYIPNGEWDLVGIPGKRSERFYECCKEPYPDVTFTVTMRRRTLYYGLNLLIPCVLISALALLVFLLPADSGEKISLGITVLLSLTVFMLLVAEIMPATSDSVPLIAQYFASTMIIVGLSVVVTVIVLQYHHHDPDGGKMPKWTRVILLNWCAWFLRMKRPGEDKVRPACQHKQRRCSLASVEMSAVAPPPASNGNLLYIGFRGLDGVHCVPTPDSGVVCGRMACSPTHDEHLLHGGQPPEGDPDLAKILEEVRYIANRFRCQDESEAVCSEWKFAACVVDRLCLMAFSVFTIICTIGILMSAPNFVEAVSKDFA

[2] = molecular target: T1, Neuronal acetylcholine receptor subunit alpha-7; experiment: as §1, with “residual” for “direct”, “preincubated with” for “co-application of”, “followed by Ach addition after” for “and”, “PNU-120596 addition” for “PNU-120596”; type: cell-based; conditions: Oocyte
[3] = molecular target: T1, Neuronal acetylcholine receptor subunit alpha-7; experiment: Partial agonist activity at human alpha7 nAChR expressed in Xenopus laevis oocytes at 10 uM at -60 mV holding potential by measuring net charge by two electrode voltage-clamp assay; type: cell-based; conditions: Oocyte
[4] = molecular target: T1, Neuronal acetylcholine receptor subunit alpha-7; experiment: (§2) Partial agonist activity at human alpha7 nAChR expressed in Xenopus laevis oocytes assessed as inhibition of Ach response at 10 to 30 uM at -60 mV holding potential by measuring net charge preincubated with compound followed by Ach addition by two electrode voltage-clamp assay; type: cell-based; conditions: Oocyte, dose 10-30 µM
[5] = molecular target: T1, Neuronal acetylcholine receptor subunit alpha-7; experiment: Partial agonist activity at human alpha7 nAChR expressed in Xenopus laevis oocytes at -60 mV holding potential by two electrode voltage-clamp assay; type: cell-based, Oocyte; conditions: for Imax: Oocyte, filed as partial agonist
[6] = molecular target: T1, Neuronal acetylcholine receptor subunit alpha-7; experiment: Partial agonist activity at human alpha7 nAChR expressed in Xenopus laevis oocytes assessed as direct potentiation of Ach response at 30 uM at -60 mV holding potential by measuring net charge co-application of compound and PNU-120596 by two electrode voltage-clamp assay; type: cell-based; conditions: Oocyte, filed as partial agonist
[7] = molecular target: T1, Neuronal acetylcholine receptor subunit alpha-7; experiment: as §2, with “residual potentiation” for “inhibition”, “at” for “at 10 to”, “addition after PNU-120596 addition” for “addition”; type: cell-based; conditions: Oocyte, filed as partial agonist
[8] = molecular target: T1, Neuronal acetylcholine receptor subunit alpha-7; experiment: Partial agonist activity at human alpha7 nAChR expressed in Xenopus laevis oocytes at 1 to 30 uM at -60 mV holding potential by two electrode voltage-clamp assay; type: cell-based; conditions: Oocyte, dose 1-30 µM
[9] = molecular target: T1, Neuronal acetylcholine receptor subunit alpha-7; experiment: Partial agonist activity at human alpha7 nAChR expressed in Xenopus laevis oocytes assessed as inhibition of Ach response at 30 uM at -60 mV holding potential by measuring net charge preincubated with compound followed by Ach stimulation by two electrode voltage-clamp assay; type: cell-based; conditions: Oocyte, filed as partial agonist
[10] = molecular target: T1, Neuronal acetylcholine receptor subunit alpha-7; experiment: as §2, with “residual potentiation” for “inhibition”, “3” for “10 to 30”, “addition after PNU-120596 addition” for “addition”; type: cell-based; conditions: Oocyte, filed as partial agonist
[11] = molecular target: T1, Neuronal acetylcholine receptor subunit alpha-7; experiment: Partial agonist activity at human alpha7 nAChR expressed in Xenopus laevis oocytes assessed as inhibition of Ach response at 3 uM at -60 mV holding potential by measuring net charge preincubated with compound followed by Ach stimulation by two electrode voltage-clamp assay; type: cell-based; conditions: Oocyte

## O=C(c1ccc(-c2ccc3ccccc3c2)o1)N1CCN2CCC1CC2
[1]
  Activity: inactive
[2]
  Activity: inactive
[3]; filed as partial agonist
  Activity: 0.15
[4]; filed as partial agonist
  Activity: 1.18

## O=C(c1ccc(-c2ccc(C(F)(F)F)cc2)o1)N1CCN2CCC1CC2
[1]; filed as partial agonist
  Activity: 6.25
[2]; filed as partial agonist
  Activity: 3.23
[3]; filed as partial agonist
  Activity: 0.4
[4]; filed as partial agonist
  Activity: 0.64

## CCN(CC)C(=O)c1ccc(-c2cccc(C(F)(F)F)c2)o1
[1]
  Activity: inactive
[2]
  Activity: inactive
[3]
  Activity: inactive
[4]
  Activity: inactive

## FC(F)(F)c1cccc(-c2ccc(CN3CCN4CCC3CC4)o2)c1
[1]
  Activity: inactive
[2]
  Activity: inactive
[3]
  Activity: inactive

## O=C(c1ccc(-c2cccc(C(F)(F)F)c2)o1)N1CC2CCN(CC2)C1
[1]
  Activity: inactive
[2]
  Activity: inactive
[3]
  Activity: inactive
[4]
  Activity: inactive

## CC(=O)N1CCN2CCC1CC2
[1]; filed as partial agonist
  Activity: Active
[2]
  Activity: inactive
[3]
  Activity: inactive

## O=C(c1ccc(-c2cccc(Br)c2)o1)N1CCN2CCC1CC2
[2]; filed as partial agonist
  Activity: Active
[3]
  Activity: inactive
[4]; filed as partial agonist
  Activity: Active

## O=C(c1ccc(-c2ccoc2)o1)N1CCN2CCC1CC2
[2]; filed as partial agonist
  Activity: Active
[3]; filed as partial agonist
  Activity: Active
[4]; filed as partial agonist
  Activity: Active

## O=C(c1ccc(-c2cccc(C(F)(F)F)c2)o1)N1C[C@H]2C[C@@H]1CN2
[1]; filed as partial agonist
  Activity: 43.7
[2]
  Activity: inactive
[3]
  Activity: inactive
[4]
  Activity: inactive

## O=C(c1ccco1)N1CCN2CCC1CC2
[5]
  EC50: 0.764 µM
  Imax: 0.71
[1]; filed as partial agonist
  Activity: Active
[2]
  Activity: inactive
[3]; filed as partial agonist
  Activity: 0.71

## O=C(c1ccc(-c2ccccc2)o1)N1CCN2CCC1CC2
[2]; filed as partial agonist
  Activity: 18.3
[3]; filed as partial agonist
  Activity: 0.54
[4]; filed as partial agonist
  Activity: 0.14

## O=C(c1ccc(-c2cccc(I)c2)o1)N1CCN2CCC1CC2
[2]; filed as partial agonist
  Activity: Active
[3]
  Activity: inactive
[4]; filed as partial agonist
  Activity: Active

## O=C(c1ccc(-c2cccc(C(F)(F)F)c2)o1)N1CCN2CCC1CC2
[6]
  Activity: 2.73
[7]
  Activity: 57.4
[8]
  Activity: inactive
[9]
  Activity: 0.18
[10]
  Activity: 123
[11]
  Activity: inactive
[2]; filed as partial agonist
  Activity: 111
[4]; filed as partial agonist
  Activity: 0.19

## O=C(c1ccc(-c2cccc(O)c2)o1)N1CCN2CCC1CC2
[2]; filed as partial agonist
  Activity: Active
[3]
  Activity: inactive
[4]
  Activity: inactive

## Nc1cccc(-c2ccc(C(=O)N3CCN4CCC3CC4)o2)c1
[1]; filed as partial agonist
  Activity: 24.6
[3]; filed as partial agonist
  Activity: 0.1
[4]; filed as partial agonist
  Activity: 0.5

## O=C(c1ccc(-c2cccc(Cl)c2)o1)N1CCN2CCC1CC2
[2]; filed as partial agonist
  Activity: Active
[3]
  Activity: inactive
[4]
  Activity: 0.04

## Cc1cccc(-c2ccc(C(=O)N3CCN4CCC3CC4)o2)c1
[2]; filed as partial agonist
  Activity: 30.7
[3]
  Activity: inactive
[4]; filed as partial agonist
  Activity: 0.2

## O=C(c1ccc(-c2cccc([N+](=O)[O-])c2)o1)N1CCN2CCC1CC2
[1]; filed as partial agonist
  Activity: 12.2
[2]; filed as partial agonist
  Activity: 4.78
[3]
  Activity: inactive
[4]
  Activity: inactive

## C[N+]12CCC(CC1)N(C(=O)c1ccc(-c3cccc(C(F)(F)F)c3)o1)CC2
[5]
  EC50: 0.322 µM
  Imax: 0.81
[1]; filed as partial agonist
  Activity: Active
[2]; filed as partial agonist
  Activity: 1.39
[3]; filed as partial agonist
  Activity: 0.79

## O=C(c1ccc(-c2cccc(C(F)(F)F)c2)o1)N1C[C@@H]2C[C@H]1CN2
[1]; filed as partial agonist
  Activity: 15.2
[2]
  Activity: inactive
[3]
  Activity: inactive
[4]
  Activity: inactive

## O=C(c1ccc(-c2cncc3ccccc23)o1)N1CCN2CCC1CC2
[1]; filed as partial agonist
  Activity: 20.4
[2]
  Activity: inactive
[3]; filed as partial agonist
  Activity: 0.11
[4]; filed as partial agonist
  Activity: 0.94

## C1CN2CCC(CC2)N1
[1]
  Activity: inactive
[2]
  Activity: inactive
[3]
  Activity: inactive
[4]
  Activity: inactive

## O=C(c1ccc(-c2cccc(F)c2)o1)N1CCN2CCC1CC2
[2]; filed as partial agonist
  Activity: Active
[3]
  Activity: inactive
[4]; filed as partial agonist
  Activity: Active

## CCN1CCN2CCC1CC2
[1]
  Activity: inactive
[3]
  Activity: inactive
[4]
  Activity: inactive
